The text below walks through data of PubChem BioAssay AID1648 (Sanford-Burnham Center for Chemical Genomics, 2009).

Each structure is given as a SMILES string. Activity calls are given as the source filed them. No rule for the calls is given here.

Sequence of Serine/threonine-protein kinase mTOR (Homo sapiens) (P42345 2015-2114): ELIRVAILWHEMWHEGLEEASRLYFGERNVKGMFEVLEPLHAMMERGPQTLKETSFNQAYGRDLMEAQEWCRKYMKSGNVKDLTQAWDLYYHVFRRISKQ

This assay concerns the target Serine/threonine-protein kinase mTOR (Homo sapiens) (UniProt P42345). Put plainly: mTOR FRB domain ligand binding – biophysical, NMR (AID 1648). The conditions noted are these: NMR binding to FRB domain, chemical shift.
Regarding `O=S1(=O)CCC(NCc2ccccc2)C1` (stereo unspecified), the Kd was > 4 mM (inactive).

Regarding `NC(=O)c1cc2c(n(-c3ccccc3)c1=O)CCCC2=O`, the Kd is > 4 mM (inactive).

Turning to `O=C(Nc1cccc(O)c1)c1ccccc1`, the Kd was > 4 mM (inactive).

On to `COc1cccc(O)c1O`, for which the Kd is > 4 mM (inactive).

For the compound `O=[N+]([O-])c1c[n+]([O-])n(-c2ccccc2)n1`, the Kd was > 4 mM (inactive).

Take `CN1CCN(c2ccc(N)cc2)CC1`: the Kd was > 4 mM (inactive).

Consider `O=C1CSC(=O)N1c1cccc(O)c1`, for which the Kd is > 4 mM (inactive).

On to `C(=N\n1cnnc1)/c1cccs1`, for which the Kd was > 4 mM (inactive).

For `COc1cc(O)cc(/C=C/c2ccccc2)c1`, the Kd was > 4 mM (inactive).

In the case of `COc1ccc([C@@H]2CC(=O)c3c(O)cc(O)cc3O2)cc1O`, the Kd is > 4 mM (inactive).

As for `NS(=O)(=O)c1ccccc1Cl`, the Kd is > 4 mM (inactive).

`CCCN1CCC(N2CCC(O)CC2)CC1`: the Kd is > 4 mM (inactive).

As to `CCOc1cc(S(=O)(=O)N2CCOCC2)ccc1F`, the Kd was > 4 mM (inactive).

Consider `O=S(=O)(Cc1ccc(Cl)cc1)N1CCCC1`, for which the Kd was > 4 mM (inactive).

Take `CC(=O)Oc1ccc(-c2cc(=O)c3c(OC(C)=O)cc(OC(C)=O)cc3o2)cc1`: the Kd is > 4 mM (inactive).

Take `O=C(Nc1ccon1)c1ccccc1Cl`: the Kd was > 4 mM (inactive).

With `OCC1CCCCCN1` (stereo unspecified), the Kd is > 4 mM (inactive).

For `Cc1ccn(S(=O)(=O)c2ccc(F)cc2)n1`, the Kd was > 4 mM (inactive).

For `Nc1ccc2sccc2c1`, the Kd is > 4 mM (inactive).

Consider `Cc1csc(NC(=O)c2cccs2)n1`, for which the Kd is > 4 mM (inactive).

With `NCc1ccc(-n2cccn2)cc1`, the Kd was > 4 mM (inactive).

With `COc1ccc(CC(=O)c2ccc(O)cc2O)cc1`, the Kd is > 4 mM (inactive).

As to `Cc1cc(N2CCCC2=O)c(N)cc1N`, the Kd is > 4 mM (inactive).

Consider `Cc1ccc(/C=C2/NC(=S)NC2=O)s1`, for which the Kd was > 4 mM (inactive).

In the case of `COc1ccc(NC(=O)N2CCCCC2)cc1`, the Kd was > 4 mM (inactive).

For the compound `COc1cc(C)c2c(c1C=O)Oc1c(c(C)c(O)c3c1C(O)OC3=O)OC2=O` (stereo unspecified), the Kd is > 4 mM (inactive).

`COCC(=O)Nc1nc2ccc(C)cc2s1`: the Kd is > 4 mM (inactive).

As to `Cc1cc(NC(=O)c2ccccc2C(=O)O)no1`, the Kd is > 4 mM (inactive).

Regarding `COc1cc(OC)c2c(=O)c(O)c(-c3ccc(OC)c(OC)c3)oc2c1`, the Kd was > 4 mM (inactive).

In the case of `Nc1nc(-c2ccc(O)cc2)cs1`, the Kd is > 4 mM (inactive).

Regarding `O=C(O)Cn1c(=O)sc2ccccc21`, the Kd is > 4 mM (inactive).

Take `O=c1[nH]cc(N2CCCCC2)c(=O)[nH]1`: the Kd was > 4 mM (inactive).

Turning to `COC(=O)c1cc(C)on1`, the Kd was > 4 mM (inactive).

For the compound `C=CCn1c(-c2ccc(O)cc2)n[nH]c1=S`, the Kd was > 4 mM (inactive).

Turning to `Cc1cc(NC(=O)c2cnn3cccnc23)no1`, the Kd is > 4 mM (inactive).

For `COc1cc2c(c(OC)c1OC)-c1ccc(O)c(=O)cc1[C@@H](NC(C)=O)CC2`, the Kd is > 4 mM (inactive).

With `N#Cc1cnc(N2CCCCC2)nc1N`, the Kd was > 4 mM (inactive).

Regarding `O=c1ccc2ccc(O)cc2o1`, the Kd was > 4 mM (inactive).

As to `COc1cc(OC)c(-c2nc3cnccc3n2C)cc1OC`, the Kd is > 4 mM (inactive).

In the case of `O=C(Nc1nc2c(s1)CCCC2)c1cccnc1`, the Kd was > 4 mM (inactive).

As for `O=C(O)Cc1csc(-c2ccccc2)n1`, the Kd was > 4 mM (inactive).

With `COc1ccc(-c2cc(=O)c3cc(OC)ccc3o2)cc1`, the Kd was > 4 mM (inactive).

`O=c1cccc2n1CC1CC2CN2CCCC[C@@H]12` (stereo partly specified): the Kd is > 4 mM (inactive).

As for `CC(C)=CCc1c(O)cc2occ(-c3ccc4c(c3)OCO4)c(=O)c2c1O`, the Kd is > 4 mM (inactive).

With `CC(=O)CNc1cc(CNC(C)=O)c(C)cc1C`, the Kd was > 4 mM (inactive).

Take `N#CCCn1ccnc1-c1ccccc1`: the Kd is > 4 mM (inactive).

Regarding `O=C(/C=C/c1ccccc1)NC1CCS(=O)(=O)C1` (stereo unspecified), the Kd was > 4 mM (inactive).

For `Cc1cc(=O)n2ccc(CN3CCOCC3)c(O)c2n1`, the Kd was > 4 mM (inactive).

Regarding `O=C(O)c1cccc2c1OCC2`, the Kd is > 4 mM (inactive).

As for `Cc1cccc(N2C(=O)CCC2=O)n1`, the Kd was > 4 mM (inactive).

Regarding `O=C(O)c1ccc2nsnc2c1`, the Kd was > 4 mM (inactive).

With `O=C1C2=C(SCCS2)C(=O)N1CCCO`, the Kd was > 4 mM (inactive).

As to `CN1CCN(c2ccc(CN)cc2)CC1`, the Kd was > 4 mM (inactive).

With `Cc1ccccc1CSc1nnc(C)n1N`, the Kd is > 4 mM (inactive).

`COc1cc(N)ncn1`: the Kd was > 4 mM (inactive).

Take `O=C(O)c1ccc(N2CCOCC2)cc1`: the Kd is > 4 mM (inactive).

Turning to `COc1cc(OC)cc(-c2nc(N)n[nH]2)c1`, the Kd is > 4 mM (inactive).

Consider `CC1(C)C(=O)C=C[C@@]2(C)C1=C(O)C(=O)[C@]1(C)C2CC[C@@]2(C)[C@H](c3ccoc3)C[C@H]3O[C@]321` (stereo partly specified), for which the Kd was > 4 mM (inactive).

Regarding `Nc1ccc(CN2CCOCC2)cc1`, the Kd was > 4 mM (inactive).

Turning to `COc1ccc2c(c1OC)OC[C@@H](c1ccc(OC)c(OC)c1OC)C2`, the Kd is > 4 mM (inactive).

In the case of `CN1C2C[C@H](OC(=O)[C@H](CO)c3ccccc3)C[C@H]1[C@@H](O)C2`, the Kd is > 4 mM (inactive).

Take `O=C1CCC([N+](=O)[O-])C(c2ccccc2F)N1` (stereo unspecified): the Kd is > 4 mM (inactive).

As for `CCN1CCN(CCCNc2ncnc3nc[nH]c23)CC1`, the Kd was > 4 mM (inactive).

As for `Nc1ccc(Cl)nn1`, the Kd is > 4 mM (inactive).

On to `Cc1cc(=O)n(C(N)=S)[nH]1`, for which the Kd was > 4 mM (inactive).

For the compound `CC(=O)Nc1ccc(S(=O)(=O)NCC2CCCO2)cc1` (stereo unspecified), the Kd is > 4 mM (inactive).

Turning to `O=C1COc2cc(O)ccc21`, the Kd is > 4 mM (inactive).

As for `O=C(CC1NCCNC1=O)Nc1ccccc1` (stereo unspecified), the Kd is > 4 mM (inactive).

On to `Cc1ccc(-c2nn(C)c(=O)c3ccccc23)cc1CO`, for which the Kd is > 4 mM (inactive).

With `Cn1ccc(C(=O)NC(=S)NN2CCOCC2)n1`, the Kd is > 4 mM (inactive).

`OC/C=C/c1ccc(O)c(O)c1`: the Kd is > 4 mM (inactive).

In the case of `O=C(Nc1ccc2c(c1)CCC2)c1cnccn1`, the Kd is > 4 mM (inactive).

Take `NC(=O)C1CCN(C2CC(=O)NC2=O)CC1` (stereo unspecified): the Kd is > 4 mM (inactive).

Consider `O=C1C2C3C=CC(C3)C2C(=O)N1c1nccs1` (stereo unspecified), for which the Kd was > 4 mM (inactive).

Take `CCn1nnc(NC(=O)c2cc3ccccc3o2)n1`: the Kd was > 4 mM (inactive).

For the compound `O=c1cc(-c2ccc(O)cc2)oc2cc(O)cc(O)c12`, the Kd is > 4 mM (inactive).

`CN1CCN(C(=O)c2ccco2)CC1`: the Kd is > 4 mM (inactive).

As to `Nc1nc(-c2ccncc2)cs1`, the Kd was > 4 mM (inactive).

As for `O=C(c1ccccc1)N1CCNCC1`, the Kd is > 4 mM (inactive).

For `O=C(NCCO)c1cc2ccccc2cc1O`, the Kd is > 4 mM (inactive).

On to `Cc1cc(Oc2ccccc2)nc(N)n1`, for which the Kd is > 4 mM (inactive).

Regarding `CNC(=O)C(=O)NCc1ccc(C)cc1`, the Kd was > 4 mM (inactive).

For the compound `O=S1(=O)CCC(N2CCCCC2)C1` (stereo unspecified), the Kd is > 4 mM (inactive).

Consider `CC1=NN2C(=N)CC(=O)N=C2S1`, for which the Kd is > 4 mM (inactive).

Take `COc1cc2c3cc1Oc1c(OC)c(OC)cc4c1[C@@H](Cc1cccc(c1)Oc1ccc(c(O)c1)C[C@@H]3N(C)CC2)N(C)CC4`: the Kd is > 4 mM (inactive).

For `NC(=S)NC1CCS(=O)(=O)C1` (stereo unspecified), the Kd is > 4 mM (inactive).

Consider `NC(=O)C1CCN(C(=O)c2ccccc2)CC1`, for which the Kd was > 4 mM (inactive).

Consider `O=C(Cc1ccc(F)cc1)Nc1ncccn1`, for which the Kd was > 4 mM (inactive).

For the compound `CNC(Cc1c[nH]c2ccccc12)C(=O)O` (stereo unspecified), the Kd is > 4 mM (inactive).

In the case of `CC(NC(=O)c1ccco1)C1CCCO1` (stereo unspecified), the Kd was > 4 mM (inactive).

Take `COC(=O)NNc1ncnc(N)c1[N+](=O)[O-]`: the Kd is > 4 mM (inactive).

Take `NS(=O)(=O)c1ccc2c(c1)OCCO2`: the Kd is > 4 mM (inactive).

Consider `O=C1N/C(=N\c2ccccn2)SC1Cc1ccccc1` (stereo unspecified), for which the Kd is > 4 mM (inactive).

Take `O=C1CS/C(=N/N=C/c2cccs2)N1`: the Kd was > 4 mM (inactive).

Regarding `CCCCCCCCCCCCCCC(C(=O)O)C(O)(CC(=O)OC)C(=O)O` (stereo unspecified), the Kd was > 4 mM (inactive).

As for `CC(=O)N1CCC(NC2CCCCCC2)CC1`, the Kd was > 4 mM (inactive).

In the case of `O=C(O)CCN1CCc2ccccc2C1c1ccncc1` (stereo unspecified), the Kd is > 4 mM (inactive).

Turning to `CCOC(=O)CC1NCCNC1=O` (stereo unspecified), the Kd is > 4 mM (inactive).

On to `Cc1cc(C)n(C2CCS(=O)(=O)C2)n1` (stereo unspecified), for which the Kd was > 4 mM (inactive).

Consider `CC(=O)Nc1ccc(S(=O)(=O)N2CCN=C2C)cc1`, for which the Kd is > 4 mM (inactive).

Take `Cn1c(SCc2ccon2)nc2ccccc2c1=O`: the Kd is > 4 mM (inactive).

Regarding `CCNC(=O)CC1Nc2ccccc2NC1=O` (stereo unspecified), the Kd was > 4 mM (inactive).

For the compound `CC(=O)OCC(=O)[C@@]1(O)CCC2C3CC[C@@H]4C[C@H](OC(C)=O)CC[C@]4(C)C3C(=O)C[C@@]21C` (stereo partly specified), the Kd was > 4 mM (inactive).

Turning to `O=C(O[C@@H]1Cc2c(O)cc(O)cc2O[C@@H]1c1cc(O)c(O)c(O)c1)c1cc(O)c(O)c(O)c1`, the Kd is > 4 mM (inactive).

For `C(=N\c1ncn[nH]1)/c1cccs1`, the Kd was > 4 mM (inactive).

As for `Nc1nc2ncc(CNc3ccc(C(=O)N[C@@H](CCC(=O)O)C(=O)O)cc3)nc2c(=O)[nH]1`, the Kd is > 4 mM (inactive).

The Kd is a measure of binding affinity in units of concentration.
